According to the CheMixHub viscosity set:

Experiment: xn = mol fraction of the nth substance listed

O=C(O)c1cccnc1 + O
viscosity [mPa·s]
Conditions | 100 kPa | 101 kPa
298.15 K, x1 = 0.000225 | 0.8934 | 0.8934
298.15 K, x1 = 0.000268 | 0.903 | –
298.15 K, x1 = 0.000452 | 0.8963 | 0.8963
298.15 K, x1 = 0.0005074 | – | 0.8966
298.15 K, x1 = 0.0007821 | – | 0.9016
298.15 K, x1 = 0.000808 | 0.908 | –
298.15 K, x1 = 0.000907 | 0.902 | 0.902
298.15 K, x1 = 0.00135 | 0.913 | –
298.15 K, x1 = 0.0015 | – | 0.893
298.15 K, x1 = 0.00162 | 0.916 | –
303.15 K, x1 = 0.000542 | 0.809 | –
303.15 K, x1 = 0.000808 | 0.812 | –
303.15 K, x1 = 0.00108 | 0.814 | –
308.15 K, x1 = 0.000452 | – | 0.7233
308.15 K, x1 = 0.0005074 | – | 0.7239
308.15 K, x1 = 0.00108 | 0.746 | –
308.15 K, x1 = 0.001153 | – | 0.7288
308.15 K, x1 = 0.001301 | – | 0.7321
308.15 K, x1 = 0.00135 | 0.75 | –
308.15 K, x1 = 0.00136 | 0.732 | 0.732
308.15 K, x1 = 0.001617 | – | 0.7347
308.15 K, x1 = 0.00162 | 0.754 | –
308.15 K, x1 = 0.001957 | – | 0.7385
313.15 K, x1 = 0.000808 | 0.673 | –
313.15 K, x1 = 0.00108 | 0.677 | –
313.15 K, x1 = 0.00135 | 0.681 | –
313.15 K, x1 = 0.00162 | 0.685 | –
318.15 K, x1 = 0.000225 | 0.5976 | 0.5976
318.15 K, x1 = 0.000268 | 0.61 | –
318.15 K, x1 = 0.000542 | 0.614 | –
318.15 K, x1 = 0.0007 | – | 0.584
318.15 K, x1 = 0.0007821 | – | 0.602
318.15 K, x1 = 0.000808 | 0.617 | –
318.15 K, x1 = 0.000907 | 0.6036 | 0.6036
318.15 K, x1 = 0.00108 | 0.62 | –
318.15 K, x1 = 0.001153 | – | 0.6035
318.15 K, x1 = 0.00135 | 0.624 | –
318.15 K, x1 = 0.00136 | 0.608 | 0.608
318.15 K, x1 = 0.0015 | – | 0.587
318.15 K, x1 = 0.001617 | – | 0.6081
318.15 K, x1 = 0.00162 | 0.628 | –
318.15 K, x1 = 0.001957 | – | 0.61
318.15 K, x1 = 0.0022 | – | 0.589

O=[N+]([O-])[O-].[Li+] + O
100 kPa
Conditions | viscosity [mPa·s]
298.11 K, x1 = 0.0088 | 0.9305
298.18 K, x1 = 0.00475 | 0.9105
298.35 K, x1 = 0.01898 | 0.9846
298.45 K, x1 = 0.02699 | 1.04
306.75 K, x1 = 0.02699 | 0.8753
307.65 K, x1 = 0.01898 | 0.8088
307.85 K, x1 = 0.00475 | 0.746
308.95 K, x1 = 0.0088 | 0.7411
